# In US5360803A, “Composition and method for treating cancer” (Dan Farber Cancer Institute, priority 1992, dated 1994):
# Where two headings read alike, the source gives them in different places.
# Key:
# EJ cells = experiment: colony assay of Example 1 with human bladder carcinoma EJ cell line; type: cell-based; conditions: for Selectivity: CV-1/EJ; for IC50: EJ;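 on all read-outs here: colony formation assay with 24 h compound exposure at 37 °C, then 7–10 days drug-free regrowth, colonies stained with crystal violet, controls given medium alone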
# CV-1 cells = experiment: selective killing assay, colony number reduced to 50% of control, normal monkey kidney epithelial cell line CV-1; type: cell-based; conditions: 24 hours treatment; for IC50: Primates
# Excerpt: (§1) The control received culture media only.
# MCF-7 cells = experiment: colony assay of Example 1 with human breast carcinoma MCF-7 cell line; type: cell-based; conditions: for Selectivity: CV-1/MCF-7; for MCF-7(IC50) / IC50: Table VI, human breast carcinoma, 24 hours treatment
# Excerpt: as §1
# CRL 1420 cells = experiment: colony assay of Example 1 with human pancreatic carcinoma CRL 1420 cell line; type: cell-based; conditions: for Selectivity: CV-1/CRL-1420; for CRL-1420(IC50) / IC50: Table VII, human pancreatic carcinoma, 24 hours treatment; for IC50: Homo sapiens, 24 h;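 on all read-outs here: colony formation assay, cells exposed for 24 h then regrown 7 to 10 days without compound, colonies stained with crystal violet, control given medium alone, normal reference CV-1 monkey kidney epithelial cells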
# Procedure: (§2) Human colon carcinoma cell line CX-1 or normal monkey kidney epithelial cell line CV-1 was chosen as representatives of cancer cells and normal cells, respectively. […] CX-1 cells (2,000 cells/well) and CV-1 cells (1,000 cells/well) were plated in 24-well plastic culture plates. […] The control received culture media only. Cells were treated with compounds of General Formulas (I) to (V) at 37° C. for 24 hours. After rinsing with fresh culture medium three times, the cells were further incubated at 37° C. for 7 to 10 days. Cell colonies were fixed and stained with 2% crystal violet in 70% ethanol for 10 minutes and rinsed in water. […] The selectivity is defined as the ratio of IC50 for CV-1 and IC50 for CX-1.
# human melanoma LOX = experiment: survival of nude mice implanted with human melanoma LOX; type: in vivo, male athymic Swiss nu/nu mouse (human tumor); conditions: Mus musculus, ip, 24 h, read-out: T/C; for response vs control in vivo at 3 mg/kg: 3 mg/kg i.p. on day 1, 4, 8, 10, 12
# CX-1 cells = experiment: selective killing assay, colony number reduced to 50% of control, human colon carcinoma cell line CX-1; type: cell-based; conditions: for Selectivity (ratio of IC50 for CV-1 and IC50 for CX-1): CV-1/CX-1; for CX-1 (IC50): Table III; for IC50: Homo sapiens;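 on all read-outs here: colonies stained with crystal violet and counted, control cells given medium alone, exposure at 37 °C, normal monkey kidney epithelial CV-1 cells as the non-cancer comparator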
# Procedure: as §2
# LOX cells = experiment: colony assay of Example 1 with human melanoma LOX cell line; type: cell-based; conditions: for Selectivity: CV-1/LOX; for LOX(IC50) / IC50: Table V, human melanoma, 24 hours treatment; for IC50: LOX;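 on all read-outs here: colony formation assay with 24 h exposure at 37 °C, then 7 to 10 days of regrowth, crystal violet staining of colonies, control wells given medium alone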
# Procedure: as §2
# [1] = tested on: human colon carcinoma CX-1; experiment: anti-human colon carcinoma CX-1 activity using nude mice; type: in vivo, Swiss nu/nu mice (human tumor); conditions: Mus musculus, ip, 24 h, read-out: Tumor Inhibition
# Excerpt: Human colon carcinoma cell line CX-1 has been chosen by the National Cancer Institute as a mode for cancer drug screening (NCI Protocol 3C2H2). It was established in culture from the surgical explant of the primary colon adenocarcinoma of a person with no previous chemotherapy. The cultured CX-1 cells, upon subcutaneous injection, can grow readily in nude mice as a moderately- to well-differentiated human colon carcinoma. CEA is expressed as expected for differentiated colon carcinoma cells. Abundant keratin, consistent with epithelial origin, is present. Increased uptake and prolonged retention of delocalized lipophilic cations are observed.
# Swiss nu/nu mice obtained from Taconic Farm were housed in a pathogen-free environment. Tumors subcutaneously passaged in nude mice were excised under sterile conditions and converted to a single cell suspension using a metal grid with a 0.4 mm mesh. Red blood cells were lysed by incubation with 0.17M ammonium chloride at 4° C. for 20 minutes. Cells were scored for viability with trypan blue. Viable CX-1 cells (2.5 million) made up in 0.1 ml of […]. The mice were randomly allocated into a control group (five mice) and a treatment group (five mice per group). The drug treatment was commenced the next day. Doses and schedules were developed empirically and were based mainly on information on LD50 and LD1O obtained from preliminary toxicity studies. The control group received an equivalent volume of hydroxypropyl-β-cyclodextrin-5% glucose solution.
# The pharmaceutical compositions tested comprised solutions in 5% glucose subjected to sonication at concentrations of 1 mg/ml. Those compounds which were not completely dissolved by this procedure were dissolved hydroxypropyl-β-cyclodextrin using the following method. Hydroxypropyl-β-cyclodextrin (45 g) was mixed with 100 ml of sterilized, double distilled water and stirred for four hours. Each of the compounds to be tested (20 mg) was mixed with 10 ml of hydroxypropyl-β-cyclodextrin solution and sonicated for 60 minutes in the dark. This solution was then diluted in 5% glucose to yield a final compound concentration of 0.5 mg/ml, and further sonicated for 60 minutes in the dark to assure that the compound was completely dissolved.
# When the growth of tumors in the control group reached the exponential phase and the size of the tumor was palpable (usually 20 to 30 days after tumor implantation), the experiments were terminated. Tumors in each mouse were excised and weighed using an analytical balance. Total tumor weight in each group from five mice was calculated. Per cent tumor inhibition between the treated group and the control group was then calculated for each group.
# [2] = Table IV, human bladder carcinoma, 24 hours treatment
# [3] = Table III, normal monkey kidney epithelial cells, colony count after 7 to 10 days
# [4] = human colon carcinoma, 24 hours treatment, colony count after 7 to 10 days
# [5] = CV-1, Table III, normal monkey kidney epithelial cells, colony count after 7 to 10 days
# [6] = CX-1, Table III, human colon carcinoma, 24 hours treatment, colony count after 7 to 10 days
# [7] = 5 mg/kg i.p. on day 1, 4, 8, 11, 15
# [8] = 5 mg/kg i.p. on day 1, 5, 9, 13
# [9] = Homo sapiens, 24 h, Table IV, human bladder carcinoma, 24 hours treatment
Compound,Selectivity (EJ cells),Selectivity (MCF-7 cells),Selectivity (CRL 1420 cells),CRL-1420(IC50) (CRL 1420 cells) [µg/mL],Selectivity (ratio of IC50 for CV-1 and IC50 for CX-1) (CX-1 cells),Selectivity (LOX cells),IC50 (CV-1 cells; [5]) [µg/mL],IC50 (CX-1 cells; [6]) [µg/mL],"IC50 (CV-1 cells; CV-1, 24 h, Table V) [µg/mL]","IC50 (LOX cells; Homo sapiens, 24 h) [µg/mL]","IC50 (CV-1 cells; CV-1, 24 h, Table VI) [µg/mL]","IC50 (CV-1 cells; CV-1, 24 h, Table VII) [µg/mL]",also measured
CCn1c(=CC2=[N+](CC)CCS2)sc(=C2Sc3ccccc3N2C)c1=O [Compound 335],200,100,500,0.04,200,667,,,,,,,"EJ (IC50) (EJ cells; [2]): 0.1 µg/mL; CV-1 (IC50) (CV-1 cells; [3]): 26 µg/mL; CV-1 (IC50) (CV-1 cells; Table IV): 20 µg/mL; CV-1 (IC50) (CV-1 cells; Table V): 20 µg/mL; CV-1 (IC50) (CV-1 cells; Table VI): 20 µg/mL; CV-1 (IC50) (CV-1 cells; Table VII): 20 µg/mL; MCF-7(IC50) (MCF-7 cells): 0.2 µg/mL; response vs control in vivo at 5 mg/kg (human melanoma LOX; 5 mg/kg i.p. on day 1, 5, 8, 11, 14): 189%; CX-1 (IC50) (CX-1 cells; [4]): 0.1 µg/mL; LOX(IC50) (LOX cells): 0.03 µg/mL"
CC[n+]1c(C=c2sc(=C3Sc4ccccc4N3C)c(=O)n2-c2ccccc2)sc2ccccc21 [Compound 7],,,,,300,,1.5,0.005,,,,,"response vs control in vivo at 5 mg/kg (human melanoma LOX; 5 mg/kg i.p. on day 1, 4, 8, 12): 182%; inhibition in vivo at 5 mg/kg ([1]; 5 mg/kg i.p. on day 1, 5, 7): 42%"
CCn1c(=Cc2sc3ccccc3[n+]2CC)sc(=C2Sc3ccccc3N2C)c1=O [Compound 336],667,100,667,0.03,,4000,,,,,,,"IC50 (EJ cells; [2]): 0.03 µg/mL; IC50 (CV-1 cells; CV-1, Table IV): 20 µg/mL; IC50 (CV-1 cells; CV-1, Table V): 20 µg/mL; IC50 (MCF-7 cells; MCF7): 0.2 µg/mL; response vs control in vivo at 5 mg/kg (human melanoma LOX; 5 mg/kg i.p. on day 1, 3, 4, 6, 8, 10, 13): 188%; IC50 (LOX cells): 0.005 µg/mL"
CCn1c(=Cc2oc3ccccc3[n+]2CC)sc(=C2Sc3ccccc3N2C)c1=O [Compound 28],,,,,175,,,,,,,,"CV-1 (IC50) (CV-1 cells; [3]): 7 µg/mL; CX-1 (IC50) (CX-1 cells; [4]): 0.04 µg/mL; inhibition in vivo at 5 mg/kg ([1]; 5 mg/kg i.p. on day 1, 4, 8, 12, 16, 21): 68.8%"
CCn1c(=Cc2oc3ccccc3[n+]2C)sc(=C2Sc3ccccc3N2C)c1=O [Compound 8],,,,,500,> 200,,0.04,20,< 0.1,,,"response vs control in vivo at 5 mg/kg (human melanoma LOX; [7]): 142%; inhibition in vivo at 5 mg/kg [1, 8]: 55.1%"
CCn1c(=Cc2sc3c4ccccc4ccc3[n+]2CC)sc(=C2Sc3ccc4ccccc4c3N2C)c1=O [Compound 82],1333,312,1333,0.015,400,312,20,0.05,20,0.064,20,20,"IC50 (EJ cells; [9]): 0.015 µg/mL; IC50 (CV-1 cells; CV-1, 24 h, Table IV): 20 µg/mL; IC50 (MCF-7 cells; Homo sapiens, MCF7, 24 h): 0.064 µg/mL; response vs control in vivo at 5 mg/kg (human melanoma LOX; [7]): 142%"
CCn1c(=Cc2oc3ccc(-c4ccccc4)cc3[n+]2CC)sc(=C2Sc3ccccc3N2C)c1=O [Compound 203],,,,,,,,,,,,,"response vs control in vivo at 5 mg/kg (human melanoma LOX; [8]): 139%; inhibition in vivo at 5 mg/kg ([1]; 5 mg/kg i.p. on day 1, 5, 8, 11): 71.9%"
CCn1c(=Cc2cc[n+](CC)c3ccccc23)sc(=C2C=Cc3ccccc3N2C)c1=O [Compound 232],120,150,200,,,300,,,6,0.02,6,6,"IC50 (EJ cells; [9]): 0.05 µg/mL; IC50 (CV-1 cells; CV-1, 24 h, Table IV): 6 µg/mL; IC50 (MCF-7 cells; Homo sapiens, MCF7, 24 h): 0.04 µg/mL; IC50 (CRL 1420 cells): 0.03 µg/mL; response vs control in vivo at 3 mg/kg (human melanoma LOX): > 270%"
CN1C(=c2sc(=Cc3oc4ccccc4[n+]3C)n(C)c2=O)Sc2ccccc21 [Compound 57],,,,,120,,,0.05,,,,,"CV-1 (IC50) (CV-1 cells; [3]): 6 µg/mL; response vs control in vivo at 5 mg/kg (human melanoma LOX; 5 mg/kg i.p. on day 1, 2, 3, 6, 7, 8, 9, 10, 14): 163%; inhibition in vivo at 10 mg/kg ([1]; 10 mg/kg i.p. on day 1, 2, 5, 6, 7, 8): 66.3%"
CCn1c(=Cc2sc3ccccc3[n+]2CC)sc(=C2Sc3ccccc3N2C)c1=O [Compound 2],200,111,1000,0.01,333,667,10,,10,,10,10,IC50 (EJ cells; [9]): 0.02 µg/mL; CV-1 (IC50) (CV-1 cells; Table IV): 4 µg/mL; MCF-7(IC50) (MCF-7 cells): 0.09 µg/mL; response vs control in vivo at 5 mg/kg (human melanoma LOX; [7]): 163%; IC50 (CX-1 cells; CX-1): 0.03 µg/mL; LOX(IC50) (LOX cells): 0.015 µg/mL
CCn1c(=CC2=[N+](CC)CCS2)sc(=C2Oc3ccc4ccccc4c3N2C)c1=O [Compound 215],,200,222,,200,500,10,0.05,20,0.04,20,20,"IC50 (MCF-7 cells; Homo sapiens, MCF7, 24 h): 0.1 µg/mL; IC50 (CRL 1420 cells): 0.09 µg/mL; response vs control in vivo at 3 mg/kg (human melanoma LOX): 167%"
